# Source: patent US11246882B2, “Pharmaceutical composition for inhibiting resistance against anticancer drugs of patient suffering from ovarian cancer comprising NAG-1 inhibitor as active ingredient” (PUSAN NATIONAL UNIVERSITY INDUSTRY-UNIVERSITY COOPERATION …, priority 2015, dated 2022)
# Experiments:
# [1] = tested on: ovarian cancer stem cells (R182); assay: Cell viability by MTT assay: resistance of ovarian cancer stem cells against Taxol under NAG-1 regulation; type: cell-based, Human
# Protocol: Human epithelial ovarian cancer stem cell line R182 cells were provided by Prof. Gil Mor (Yale University School of Medicine). A2780 cells were purchased from American Type Culture Collection (Manassas, Va.). Cells were maintained in RPMI 1640 medium (supplemented with 20% [v/v] heat-inactivated FBS, 50 U/ml penicillin, and […] streptomycin) in a 5% CO2 humidified incubator at 37° C. Cell numbers were counted by trypan blue (Sigma-Aldrich, St. Louis, Mo., USA) using a hemocytometer according to dye exclusion assay.
# 200 μl of the cultured cancer cells were seeded into a 96-well plate to have 5×10^3 cells/well, and cultured for 24 hours at a temperature of 37° C. in a wet incubator with carbon 5% and […] supplied thereto. Then, an empty vector (pSilencer 4.1-CMV-neo vector, Ambion, USA) and shRNA specific to NAG-1 were added to the ovarian cancer cells, cultured for 48 hours, and treated for 48 hours with an anticancer drug, Taxol, according to the concentrations. 50 μl of MTT solution (1 mg/ml) in PBS was added to each well, and cultured again for 6 hours. After the formation of formazan was confirmed, the MTT solution was completely removed. […] Afterwards, a micro plate reader (Molecular Devices, USA) was used to measure absorbance at 560 nm. Accordingly, the relative cell viability was calculated when cells that were not treated with an anticancer drug was considered as 100%. […]
# ovarian cancer cells = assay: Treatment of ovarian cancer cells with the anticancer drug Taxol; type: cell-based; details: ovarian cancer cells other than stem cells
compound,measurement,setting,value
CC(=O)O[C@H]1C(=O)[C@@]2(C)[C@H]([C@H](OC(=O)c3ccccc3)[C@]3(O)C[C@H](OC(=O)[C@H](O)[C@@H](NC(=O)c4ccccc4)c4ccccc4)C(C)=C1C3(C)C)[C@]1(OC(C)=O)CO[C@@H]1C[C@@H]2O [Taxol],cell death of ovarian cancer stem cells on treatment with anticancer drug,[1]; ovarian cancer stem cells,ovarian cancer stem cells did not die
same,cell death of ovarian cancer cells on treatment with anticancer drug,ovarian cancer cells,ovarian cancer cells die
"shRNA specific to NAG-1: shRNA having SEQ ID NO: 1 (ACAUGCACGCGCAGAUCAA), inhibitor of expression of NAG-1 protein; expression vector","resistance against the anticancer drug (Taxol), amount of living cells by MTT assay","[1]; R182 cells, shRNA added, cultured 48 hours, then Taxol 48 hours, compared with empty vector (FIG. 5)",the resistance against the anticancer drug was reduced
